The source of these data is patent publication US11007269B2, “P53 degradation inducing molecule and pharmaceutical composition” (Tokyo University of Science Foundation, priority 2016, dated 2021).

The target of this assay is endogenous wild-type p53 protein (Homo sapiens, UniProt P04637). The assay can be described thus: Western blot of endogenous wild-type p53 protein degradation in HeLa cells, with rescue by proteasome inhibitor. It is filed as cell-based. Details: endogenous in cells. As to the method:
In Example 3, degradation (knockdown) of an endogenous wild-type p53 protein in HeLa cells (human cervical cancer cells) to which TIBC-CANDDY_MLN has been added was evaluated by Western blot analysis. At the same time, a rescue of degradation of the p53 protein by a proteasome inhibitor (MLN2238) was evaluated.
HeLa cells were seeded in a 24-well plate at a cell density of 4×10^4 cells/well, and then cultured under conditions of 37° C. and 5 vol % CO2 for 16 hours.
After 16 hours from cell seeding, TIBC-CANDDY_MLN was added to HeLa cells as follows. As a medium, a serum-free medium (37° C.) in which 1 mass % L-glutamine solution (Sigma-Aldrich) was added to D-MEM (high D-glucose, phenol red, sodium pyruvate (Wako Pure Chemical Industries, Ltd.)) was used. It is noted that the L-glutamine solution was added immediately before use. A DMSO solution containing TIBC-CANDDY_MLN was mixed with the medium so that the concentration of DMSO was 1 vol %, and added to each well at 500 μL/well, and cultured under conditions of 37° C. and 5 vol % CO2. As a control, DMSO was used. Furthermore, in addition to an experiment group in which a DMSO solution containing TIBC-CANDDY_MLN had been added, an experiment group in which a DMSO solution containing both TIBC-CANDDY_MLN and MLN2238, or MLN2238 had been added was prepared. […]
For orientation: Immunoblotting shows a protein as a band on a membrane.

Sequence of endogenous wild-type p53 protein (P04637 whole entry): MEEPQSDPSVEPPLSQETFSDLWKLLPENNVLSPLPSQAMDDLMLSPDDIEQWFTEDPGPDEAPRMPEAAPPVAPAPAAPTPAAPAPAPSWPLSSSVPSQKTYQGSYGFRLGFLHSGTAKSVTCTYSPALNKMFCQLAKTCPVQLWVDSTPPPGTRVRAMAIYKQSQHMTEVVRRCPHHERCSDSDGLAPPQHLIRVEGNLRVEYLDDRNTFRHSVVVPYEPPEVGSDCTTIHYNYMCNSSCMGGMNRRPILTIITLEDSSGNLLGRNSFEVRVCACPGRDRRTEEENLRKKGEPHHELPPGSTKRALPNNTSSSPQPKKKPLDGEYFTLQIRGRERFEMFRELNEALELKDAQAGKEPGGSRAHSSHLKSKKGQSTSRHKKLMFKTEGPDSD

For the molecule `CC(C)C[C@H](NC(=O)CNC(=O)c1cc(Cl)ccc1Cl)C(=O)NCCCCCCC(=O)Nc1ccc(C(=O)/C=C/c2ccc(I)cc2)cc1` [TIBC-CANDDY_MLN], under “24 hours after addition, vs DMSO control”, the “amount of the endogenous wild-type p53 protein (Western blot)” value is recorded as “reduced”. Besides, the “amount of the wild-type p53 protein when proteasome inhibitor MLN2238 is added as well (rescue)” value (24 hours, both TIBC-CANDDY_MLN and MLN2238 added) is listed as “increased as compared with the control (DMSO)”.
